Results as given in US10287313B2, “RNA monomers containing 0-acetal levulinyl ester groups and their use in RNA microarrays” (THE ROYAL INSTITUTION FOR THE ADVANCEMENT OF …, priority 2008, dated 2019).
In the oligonucleotide strings, read from the 5' end, every base follows the letter of its sugar. An asterisk marks phosphorothioate; unmarked linkages are phosphodiester. Other units and linkages are bracketed, terminal groups are in braces. A string of capitals states the bases alone. d = 2'-deoxy (DNA); r = 2'-OH (RNA)

Assays:
[1] = Tm of 21-nt RNAs synthesized from various chemistries; assay type: physicochemical; conditions: base sequence r(GCUUGAAGUCUUUAAUUAA)-d(TT)
[2] = tested on: luciferase mRNA; assay: RNAi assay that targets luciferase mRNA (luciferase gene knockdown by siRNA duplexes); assay type: cell-based; conditions: antisense strand annealed to common sense strand synthesized via 2′-TBDMS chemistry; light units relative to Renilla control; compared with TBDMS, TOM and ACE derived duplexes
Text: The fully deprotected antisense strands were synthesized by TBDMS, TOM, ACE and ALE chemistries, whereas the complementary sense strand of the siRNA duplex was synthesized by TBDMS chemistry.
As a final check, we evaluated the activity of all RNAs synthesized in an RNAi assay that targets luciferase mRNA (Dowler, T. et al. Nucleic Acids Res 2006, 34, 1669-75). Each of the antisense strands prepared by the various chemistries were allowed to anneal to a common sense strand synthesized via 2′-TBDMS chemistry.

Row | Substance | Tm [1] | gene silencing activity (luciferase gene knockdown) [2]
1 | r(GCUUGAAGUCUUUAAUUAA)-d(TT) [TOM] (antisense rGrCrUrUrGrArArGrUrCrUrUrUrArArUrUrArAdTdT) [21-nt antisense siRNA strand synthesized from 2′-O-TOM chemistry] | 60.1 °C | 
2 | r(GCUUGAAGUCUUUAAUUAA)-d(TT) [ALE] (antisense rGrCrUrUrGrArArGrUrCrUrUrUrArArUrUrArAdTdT) [21-nt antisense siRNA strand synthesized from 2′-O-ALE chemistry] | 59.4 °C | same gene silencing activity
3 | r(GCUUGAAGUCUUUAAUUAA)-d(TT) [ACE] (antisense rGrCrUrUrGrArArGrUrCrUrUrUrArArUrUrArAdTdT) [21-nt antisense siRNA strand from 2′-O-ACE chemistry, crude RNA purchased from Dharmacon] | 59.5 °C | 
4 | r(GCUUGAAGUCUUUAAUUAA)-d(TT) [TBDMS] (RNA, 3' dTdT, backbone not given here) [21-nt antisense siRNA strand synthesized from 2′-O-TBDMS chemistry] | 59.8 °C | 
